From patent publication US6534512B1, “Dideoxycarbocyclic nucleosides” (Regents of the University of Minnesota, priority 1988, dated 2003)
Converted amounts (≈) assume the structure as drawn.

Tests used:
[1] = system: P-388 mouse leukemia cells; experiment: P-388 mouse leukemia cell culture cytotoxicity assay; type: cell-based; settings: cultured P-388 leukemia cells
Description: The ED50 cytotoxicity concentrations determined for analogs 7a, 9a, 10a, 16a, 16b, 17a and 17b in the P-388 mouse leukemia cell culture assay are given in Table II.

[2] = system: HIV; experiment: Anti-HIV assay (NCI FCRF, XTT microculture tetrazolium), infected cells; type: cell-based; settings: for anti-HIV activity: in vitro
Description: (§1) Compounds of formula I were screened for anti-HIV activity at the National Cancer Institute, Frederick Cancer Research Facility, Frederick, Md. (FCRF). The following are the current screening mode operational procedures utilized at FCRF. The protocol consists of 3 areas, (I) preparation of infected cells and distribution to the test plates, (II) preparation of drug dilution plates and distribution to the test plates, and (III) XTT assay procedure. See D. A. Scudiero et al., “A New Simplified Tetrazolium Assay for Cell Growth and Drug Sensitivity in Culture,” Cancer Res., 48, 4827 (1988).
Cells to be infected (a normal lymphoblastoid cell line which expresses CD4) are placed in 50 ml conical centrifuge tubes and treated for 1 hr with 1-2 μg/ml of polybrene at 37° C. The cells are then pelleted for 8 min. ) at 1200 rpm. HIV virus, diluted 1:10 in media (RMP1-1640, 10% human serum or 15% fetal calf serum (FCS), with IL-2, for ATH8 cells only, and antibiotics) is added to provided an MOI of 0.001. Medium alone is added to virus-free control cells. Assuming an infectious virus titer of 10^−4, an MOI of 0.001 represents […] infectious virus particles per 10,000 cells. About 500,000 cells/tube are exposed to 400 μl of the virus dilution. The resultant mixture is incubated for 1 hr at 37° C. in Air-CO2. The infected or uninfected cells are diluted to give 1×10^−4 (with human serum or 2×10^−4 with fetal calf serum) cells/100 μl.
Infected or uninfected cells (100 μl) are distributed to appropriate wells of a 96 well, U-bottom, microtiter plate. Each compound dilution is tested in duplicate with infected cells. Uninfected cells are examined for drug sensitivity in a single well for each dilution of compound. Drug-free control cells, infected and uninfected, are run in triplicate. Wells B2 through G2 served as reagent controls and received medium only. The plates are incubated at 37° C. in Air-CO2 until the drug is added.
Dilution plates (flat bottom 96 well, microtiter plates) are treated overnight with phosphate buffered saline (PBS) or media containing at least 1% FCS or 1% human serum (depending on the medium used in the test), beginning the day before assay. This “blocking” procedure is used to limit the adsorption of drug to the microtiter tray during the dilution process. The wells are filled completely with the blocking solution and allowed to stand at room temperature in a humidified chamber in a hood.
The dilution process is begun by first diluting the test compound 1:20. Blocked, dilution plates are prepared by flicking out the blocking solution and blotting dry on sterile gauze. All wells of each plate are then filled with 225 μl of the appropriate medium using a Cetus liquid handling system. Twenty-five microliters (25 μl) of each 1:20 diluted compound is then manually added to row A of a blocked and filled dilution plate. Four compounds, sufficient to supply two test plates, are added per dilution plate. The four compounds are then serially diluted ten-fold from row A through row H using the Cetus liquid handling system. The starting dilution of each compound in row A is, at this point, 1:200. The dilution plates are kept on ice until needed.
Using a multi-channel pipettor with 6 microtips, 100 μl of each drug dilution is transferred to the test plate which already contains 100 μl of medium plus cells. The final dilution, in the test plate, starts at 1:400 (wells B4 through G4). This dilution (to 0.25% DMSO) prevents the DMSO vehicle from interfering with cell growth. Drug-free, infected or uninfected cells (wells B3 through G3) and reagent controls (B2 through G2) receive medium alone. The final two compounds are then transferred from wells H7 through H12 to a second test plate using the same procedure. Test plates are incubated at 37° C. in Air-CO2 or 7-14 days or until virus controls are lysed as determined macroscopically.
1. […]

[3] = system: normal cells (uninfected); experiment: Anti-HIV assay (NCI FCRF, XTT), drug sensitivity of uninfected cells; type: cell-based
Description: as §1
Cells to be infected (a normal lymphoblastoid cell line which expresses CD4) are placed in 50 ml conical centrifuge tubes and treated for 1 hr with 1-2 μg/ml of polybrene at 37° C. The cells are then pelleted for 8 min. ) at 1200 rpm. HIV virus, diluted 1:10 in media (RMP1-1640, 10% human serum or 15% fetal calf serum (FCS), with IL-2, for ATH8 cells only, and antibiotics) is added to provided an MOI of 0.001. Medium alone is added to virus-free control cells. […]
Using a multi-channel pipettor with 6 microtips, 100 μl of each drug dilution is transferred to the test plate which already contains 100 μl of medium plus cells. […] Test plates are incubated at 37° C. in Air-CO2 or 7-14 days or until virus controls are lysed as determined macroscopically. […]

[4] = system: H9/HTLV-IIIB; experiment: Earlier anti-HIV assay at the Southern Research Institute; type: cell-based; settings: MT-2 cells cultured with H9/HTLV-IIIB
Method: An earlier assay carried out at the Southern Research Institute yielded a TI50 of about 200 when MT-2 cells were cultured with H9/HTLV-IIIB.

[5] = system: HSV-1; experiment: Activity against HSV-1
[6] = system: HIV; parameters: TI50 against HIV in vitro: unit not given beside the values; settings: background; cited from earlier work
[7] = system: HSV-2; settings: background; cited from earlier work

Row | SMILES | cytotoxicity / activity against P-388 leukemia cells [1] | anti-HIV activity [2] | also measured
1 | OCC1C=CC(n2cnc3c(Cl)ncnc32)C1 (racemic) [Compound 7a, (±)-(1α,4α)-4-(6-chloro-9H-purin-9-yl)-2-cyclopentenyl-carbinol] | cytotoxic | active | –
2 | Nc1ncnc2c1ncn2C1C=CC(CO)C1 (racemic) [Compound 9a, (±)-(1α,4α)-4-(6-Amino-9H-purin-9-yl)-2-cyclopentenyl-carbinol] | cytotoxic | active | –
3 | OCC1C=CC(n2cnc3c(S)ncnc32)C1 (racemic) [Compound 10a, (±)-(1α,4α)-4-(6-Mercapto-9H-purin-9-yl)-2-cyclopentenyl-carbinol] | cytotoxic | active | –
4 | Nc1nc(Cl)c2ncn([C@H]3C=C[C@@H](CO)C3)c2n1 (racemic) [Compound 13a, (±)-(1α,4α)-4-(2-Amino-6-chloro-9H-purin-9-yl)-2-cyclopentenyl carbinol] | – | active | –
5 | Nc1nc(O)c2ncn(C3C=CC(CO)C3)c2n1 (racemic) [Compound 14a, (±)-(1α,4α)-4-(2-Amino-6-hydroxy-9H-purin-9-yl)-2-cyclopentenyl carbinol] | – | strongly inhibits | effective concentration (EC50) with respect to infected cells ([2]; calculated from FIG. 2 data): about 0.15 μg/ml; TI50, general range ([2]; varied with the infected cell line used): 200-400; inhibitory concentration (IC50) with respect to normal cells ([3]; calculated from FIG. 2 data): about 100 μg/ml; TI50 [4]: about 200; activity against HSV-1 [5]: active
6 | Nc1nc(N)c2ncn([C@H]3C=C[C@@H](CO)C3)c2n1 (racemic) [Compound 15a, (±)-(1α,4α)-4-(2,6-Diamino-9H-purin-9-yl)-2-cyclopentenyl-carbinol] | – | active | –
7 | Nc1nc(Cl)c2nnn(C3C=CC(CO)C3)c2n1 (racemic) [Compound 16a, (±)-(1α,4α)-4-(5-Amino-7-chloro-3H-1,2,3-triazolo[4,5d]-pyrimidin-3-yl)-2-cyclopentenyl carbinol] | cytotoxic | – | –
8 | Nc1nc(O)c2nnn(C3C=CC(CO)C3)c2n1 (racemic) [Compound 17a, (±)-(1α,4α)-4-(5-Amino-7-hydroxy-3H-1,2,3-triazolo[4,5-d]-pyrimidin-3-yl)-2-cyclopentenyl carbinol] | cytotoxic | – | –
9 | Nc1nc(N)c2nnn(C3C=CC(CO)C3)c2n1 (racemic) [Compound 18a, (±)-(1α,4α)-4-(5,7-Diamino-3H-1,2,3-triazolo[4,5-d]pyrimidin-3-yl)-2-cyclopentenyl carbinol] | cytotoxic | – | –
10 | Nc1nc(O)c2ncn([C@H]3C=C[C@@H](CO)C3)c2n1 [(−)14a, (1S,4R)-4-(2-Amino-6-hydroxy-9H-Purin-9-yl)-2-cyclopentenyl Carbinol] | – | highly active | IC50 ([3]; Homo sapiens, CCRF-CEM, CEM cells): 189 µg/mL (≈ 764 µM)
11 | Nc1ncnc2c1ncn2[C@@H]1C[C@H](CO)[C@@H](O)[C@@H]1O [Cyclaridine] | – | – | TI50 against HIV in vitro [6]: 10; activity against HSV-2 [7]: highly active
12 | CC(=O)OCC1C=CC(n2cnc3c(O)nc(N)nc32)C1 (stereo not drawn) [acetate ester (R′=Ac) of 14a, (1α,4α)-4-(2-Amino-6-hydroxy-9H-purin-9-yl)-2-cyclopentenyl Acetoxycarbinol] | – | active | inhibition of HIV ([2]; at 6 μg/ml): 28%
13 | Cc1cn(C2CC(CO)C(N=[N+]=[N-])C2)c(=O)[nH]c1=O (stereo not drawn) [carbocyclic analog of AZT] | – | – | activity against HIV [6]: inactive
